≈ marks a conversion by molar mass, not a printed value.
How the values were obtained:
S. aureus ATCC 29213 [1] = test: MIC determination, S. aureus ATCC 29213; conditions: S. aureus ATCC 29213 MIC screening; active = MIC ≤ 8 μg/mL
S. epidermis ATCC 35547 = test: MIC determination, S. epidermis ATCC 35547; type: cell-based
HepG2 cells = test: XTT cytotoxicity assay with HepG2 cells
S. aureus ATCC 29213 [2] = test: Minimal-bactericidal concentration; conditions: S. aureus ATCC 29213 (MSSA); MBC = >1000-fold reduction in colonies
Full PK study in mice = conditions: mouse
S. aureus ATCC 29213 [3] = conditions: S. aureus ATCC 29213, MSSA quality-control strain; cited from earlier work

CC(C)Nc1c[nH]nc1-c1nc(-c2ccc(Oc3ccc(C(F)(F)F)cc3)cc2)no1 [65b, N-Isopropyl-3-(3-(4-(4-(trifluoromethyl)phenoxy)phenyl)-1,2,4-oxadiazol-5-yl)-1H-pyrazol-4-amine]
antibacterial activity (in words) (S. aureus ATCC 29213 [1]): active | MIC (S. epidermis ATCC 35547): > 128 µg/mL | IC50 (HepG2 cells; Homo sapiens, HepG2, read-out: XTT HepG2 IC50): 3.9 ± 0.8 µg/mL (≈ 9.08 µM)

FC(F)(F)c1ccc(Oc2ccc(-c3noc(-c4ccc5[nH]ccc5c4)n3)cc2)cc1 [75b, 5-(1H-Indol-5-yl)-3-(4-(4-(trifluoromethyl)phenoxy)phenyl)-1,2,4-oxadiazole]
MBC relative to MIC (S. aureus ATCC 29213 [2]): the same as the MIC value | clearance as % of hepatic blood flow (Full PK study in mice; 20 mg/kg iv): less than 10% | t1/2α (Full PK study in mice; 20 mg/kg iv): t1/2α = 0.54 min | t1/2dist (Full PK study in mice; 20 mg/kg po): t1/2dist = 15.9 h | fold higher volume of distribution than 1 (Full PK study in mice; versus compound 1): 13 fold | fold lower clearance than 1 (Full PK study in mice; versus compound 1): 3 fold | fold less toxic compared to the lead 1 (XTT HepG2) (HepG2 cells; HepG2 cells, versus compound 1): 5 fold

CC(=O)NC[C@H]1CN(c2ccc(N3CCOCC3)c(F)c2)C(=O)O1 [linezolid]
MIC (S. aureus ATCC 29213 [3]): 4 µg/mL (≈ 11.9 µM)
